Reference: patent US20140357512A1, “HISTONE DEACETYLASE (HDAC) BIOMARKERS IN MULTIPLE MYELOMA” (priority 2013, published 2014)

System: human myeloma cell line MM.1S
Assay: SILAC acetylated-lysine peptide profiling, HDAC inhibitor vs DMSO (light/heavy ratio)
Format: cell-based
Source text: An embodiment of the invention comprises utilizing the SILAC method in order to quantitate changes in protein expression between two or more populations of cells. The SILAC method is a technique based on mass spectrometry that detects differences in protein abundance among samples using non-radioactive isotopic labeling. The SILAC method is known in the art, and described in detail in Ong et al., “Stable Isotope Labeling by Amino Acids in Cell Culture, SILAC, as a Simple and Accurate Approach to Expression Proteomics”, Molecular & Cellular Proteomics, vol. 1, pp. 376-386 (2002), which is incorporated herein by reference in its entirety.
Briefly, the SILAC method involves growing two populations of cells in cell culture. The first population of cells is grown in growth media containing normal amino acids (“normal media”). The second population of cells is grown in media lacking a standard essential amino acid (such as lysine), but is then supplemented with a non-radioactive, isotopically labeled form of that essential amino acid (such as lysine labeled with ^13C atoms, rather than normal ^12C atoms), which is called “heavy media”. When the two populations of cells are each growing in the medium, they incorporate the amino acids into all of their proteins. The growth of cells maintained in the heavy media is no different from that in normal media. All peptides containing the heavy amino acids are heavier than their normal counterparts. The cells from each of the two populations of cells are lysed. The lysates from each of the two cell populations are then combined. The combined cell lysates are then analyzed by mass spectrometry. Pairs of chemically identical peptides of different stable isotope composition can be differentiated in a mass spectrometer due to their difference in mass. The ratio of peak intensities in the mass spectrum for such peptide pairs reflects the abundance ratio for the two proteins.
This example describes SILAC studies that were performed to compare the effects of three different HDAC inhibitors (Compound A, Compound B, and tubastatin A) to a control on a human multiple myeloma cell line. The HDAC inhibitors were also compared amongst themselves to determine differences in their effects.
A human myeloma cell line MM.1S was grown using either ^12C (light) or ^13C (heavy) lysine containing culture medium. The “heavy” cells were treated with DMSO as the control, and the “light” cells were treated with a single HDAC inhibitor at 37° C. for 6 hours. The heavy and light cells were lysed, and the lysates were mixed in 1:1 ratio and digested with the protease trypsin. The acetylated lysine containing peptides (due to the action of the HDAC inhibitor) in the digested peptide pool were captured by a non-specific anti-acetylated lysine antibody cocktail (the antibodies identify both light and heavy acetylated peptides), and subjected to mass spectrometry analysis in order to identify thousands of individual peptides.
Thousands of peptides were identified in pairs (^12C and ^13C) due to their known mass differences. The amino acid sequence and quantitative ratio (Light/Heavy) of a given peptide in two differentially treated cell lysates were then determined and annotated with their possible protein (gene) sources.
As stated above, three HDAC inhibitors (Compound A, Compound B, and Tubastatin A) were used. Thus, the SILAC method was performed three times, with a different HDAC inhibitor compared to a control each time. Accordingly, there are three pairs of quantitative data in the table below, i.e., Compound A:DMSO, Compound B:DMSO, and Tubastatin A:DMSO. A cut-off of 1.30 fold of change (increase or decrease) was then used to determine “changed” or “+” in the table, and any peptides with a fold of change less than 1.3 fold were determined to be “unchanged” or “0” in the table. Those peptides that were not identified were marked as “NA” in the table. […]

## O=C(NO)c1cnc(NC2(c3cccc(F)c3)CCCCC2)nc1 [Compound B, 2-((1-(3-fluorophenyl)cyclohexyl)amino)-N-hydroxypyrimidine-5-carboxamide]
DDX17 [132], log 2 scale, drug vs DMSO
  L/H ratio of acetylated peptide FEK(ac)[…] (SEQ ID NO: 32): 0.00
DK(ac)WLCPLSGK (SEQ ID NO: 452), Isoform 2 of Serrate RNA effector molecule homolog [712], SRRT
  L/H ratio of acetylated peptide: 0.42 log 2
DK(ac)[…] (SEQ ID NO: 456), F-box-like/WD repeat-containing protein TBL1XR1 [102], TBL1XR1
  L/H ratio of acetylated peptide: 0.86 log 2
DLAT [466], log 2 scale, drug vs DMSO
  L/H ratio of acetylated peptide ELNK(ac)ILEGR (SEQ ID NO: 2): 0.47
DLEK(ac)WQNNLLPSR (SEQ ID NO: 211), 40S ribosomal protein 515a [88], RPS15A
  light to heavy ratio (L/H ratio) of acetylated peptide, log 2 scale: 0.00
DLMTDLK(ac)SEISGDLAR (SEQ ID NO: 129), Annexin A6 [418], ANXA6
  light to heavy ratio (L/H ratio) of acetylated peptide, log 2 scale: 0.00
DNA topoisomerase 1 [642], TOP1, drug:DMSO
  light to heavy ratio (L/H ratio) of acetylated peptide TFEK(ac)SMMNLQTK (SEQ ID NO: 354): 0.46 log 2
DNAJB11 [247], log 2 scale, drug vs DMSO
  L/H ratio of acetylated peptide VVK(ac)HPIFER (SEQ ID NO: 35): 0.00
DVFNK(ac)GYGFGMVK (SEQ ID NO: 467), Isoform 1 of Voltage-dependent anion-selective channel protein 3 [20], VDAC3
  L/H ratio of acetylated peptide: −0.73 log 2
DVK(ac)FGADAR (SEQ ID NO: 173), 60 kDa heat shock protein mitochondrial [31], HSPD1
  light to heavy ratio (L/H ratio) of acetylated peptide, log 2 scale: 0.00
DVTK(ac)AMDEK (SEQ ID NO: 426), Isoform 2 of 6-phosphofructokinase muscle type [329], PFKM
  L/H ratio of acetylated peptide: 0.53 log 2
DYNC1H1 [4283], log 2 scale, drug vs DMSO
  L/H ratio of acetylated peptide SFDSEFK(ac)LACK (SEQ ID NO: 8): 0.51
Dolichyl-diphosphooligosaccharide--protein glycosyltransferase subunit 1 precursor [626], RPN1, drug:DMSO
  light to heavy ratio (L/H ratio) of acetylated peptide DTYIENEK(ac)LISGK (SEQ ID NO: 352): 0.77 log 2
Dynein light chain 1 cytoplasmic [36], gene DYNLL1, inhibitor:DMSO
  light to heavy ratio (L/H ratio) of acetylated peptide YNIEK(ac)DIAAHIK (SEQ ID NO: 553): 0.00 log 2
Dynein light chain 2 cytoplasmic [36], DYNLL2, drug:DMSO
  light to heavy ratio (L/H ratio) of acetylated peptide YNIEK(ac)DIAAYIK (SEQ ID NO: 331): −0.45 log 2
EFTK(ac)LEEVLTNK (SEQ ID NO: 400), Glutathione S-transferase omega-1 [152], GSTO1
  L/H ratio of acetylated peptide: −0.60 log 2
EP300 [1558:1560], log 2 scale, drug vs DMSO
  L/H ratio of acetylated peptide TSK(ac)NK(ac)SSLSR (SEQ ID NO: 14): 0.43
ESESVDK(ac)VMDQK (SEQ ID NO: 404), Isoform 1 of Heterogeneous nuclear ribonucleoprotein D0 [153], HNRNPD
  L/H ratio of acetylated peptide: −0.53 log 2
EVHK(ac)[…] (SEQ ID NO: 181), Isoform 1 of L-lactate dehydrogenase A chain [232], LDHA
  light to heavy ratio (L/H ratio) of acetylated peptide, log 2 scale: 0.00
EVQTNDLK(ac)EVVNK (SEQ ID NO: 223), 40S ribosomal protein S3a [182], SNORD73A, RPS3A
  light to heavy ratio (L/H ratio) of acetylated peptide, log 2 scale: 0.00
Elongation factor 2 [638], EEF2, drug:DMSO
  light to heavy ratio (L/H ratio) of acetylated peptide YLAEK(ac)YEWDVAEAR (SEQ ID NO: 332): −0.40 log 2
Elongation factor G 2 mitochondrial precursor [265], gene GFM2, inhibitor:DMSO
  light to heavy ratio (L/H ratio) of acetylated peptide TFK(ac)GVVDVVMK (SEQ ID NO: 550): 0.00 log 2
Endoplasmin [410], HSP90B1, drug:DMSO
  light to heavy ratio (L/H ratio) of acetylated peptide KSDYIK(ac)LYVR (SEQ ID NO: 315): 0.00 log 2
Endoplasmin[ 142], HSP90B1, drug:DMSO
  light to heavy ratio (L/H ratio) of acetylated peptide EK(ac)[…] (SEQ ID NO: 314): 0.00 log 2
Endoplasmin[ 356], HSP90B1, drug:DMSO
  light to heavy ratio (L/H ratio) of acetylated peptide EVEEDEYK(ac)AFYK (SEQ ID NO: 261): 0.00 log 2
Eukaryotic translation initiation factor 2 subunit 3 [312], EIF2S3, drug:DMSO
  light to heavy ratio (L/H ratio) of acetylated peptide LMCK(ac)PIFSK (SEQ ID NO: 335): 0.49 log 2
Eukaryotic translation initiation factor 3 subunit A [68], gene EIF3A, inhibitor:DMSO
  light to heavy ratio (L/H ratio) of acetylated peptide SHLAK(ac)EGLYQYK (SEQ ID NO: 533): 0.00 log 2
FAFK(ac)EVEVQAK (SEQ ID NO: 397), Putative rRNA methyltransferase 3 [218], FTSJ3
  L/H ratio of acetylated peptide: 0.74 log 2
FEDENFHYK(ac)HDR (SEQ ID NO: 431), Peptidyl-prolyl cis-trans isomerase D [111], PPID
  L/H ratio of acetylated peptide: 0.46 log 2
FGIAAK(ac)YMLDCR (SEQ ID NO: 468), Isoform 1 of Voltage-dependent anion-selective channel protein 3 [224], VDAC3
  L/H ratio of acetylated peptide: 0.43 log 2
FK(ac)ECLDK (SEQ ID NO: 420), Isoform 2 of N-alpha-acetyltransferase 15 NatA auxiliary subunit [307], NAA15
  L/H ratio of acetylated peptide: 0.60 log 2
FLEQQNK(ac)[…] (SEQ ID NO: 241), Vimentin [129], VIM
  light to heavy ratio (L/H ratio) of acetylated peptide, log 2 scale: 0.00
